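Five compound concentrations were applied to cells in 96-well plates for 48 hours; endpoints were derived by simple linear interpolation of the resulting dose-response curve. The concentration for 50% growth inhibition is given as GI50.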 Active and inactive are the calls of the source. No stated cut-off is given here; in the data, active = GI50 up to about 1.1 µM and inactive = higher.
Tests used:
Assay in all cases: NCI tumour cell line growth inhibition, 48 h
[1] = test system: KM12
[2] = test system: COLO 205
[3] = test system: LOX IMVI
[4] = test system: U-251
[5] = test system: MDA-N
[6] = test system: RXF 393
[7] = test system: RPMI-8226
[8] = test system: OVCAR-8
[9] = test system: MOLT-4
[10] = test system: ACHN
[11] = test system: SN12C
[12] = test system: A549
[13] = test system: HL-60
[14] = test system: 786-0
[15] = test system: SNB-75
[16] = test system: NCI-H226
[17] = test system: UO-31
[18] = test system: NCI-H522
[19] = test system: OVCAR-4
[20] = test system: SW-620
[21] = test system: UACC-257
[22] = test system: SF-295
[23] = test system: EKVX
[24] = test system: SNB-19
[25] = test system: IGROV-1
[26] = test system: MCF7
[27] = test system: MDA-MB-231
[28] = test system: HCT-15
[29] = test system: BT-549
[30] = test system: HT-29
[31] = test system: CAKI-1
[32] = test system: SK-MEL-28
[33] = test system: SF-539
[34] = test system: PC-3
[35] = test system: MDA-MB-435
[36] = test system: TK-10
[37] = test system: NCI-H23
[38] = test system: K562
[39] = test system: HOP-62
[40] = test system: NCI/ADR-RES
[41] = test system: DU-145
[42] = test system: A498
[43] = test system: SK-OV-3
[44] = test system: SK-MEL-5
[45] = test system: HCC 2998
[46] = test system: M14
[47] = test system: Hs-578T
[48] = test system: SK-MEL-2
[49] = test system: HCT-116
[50] = test system: OVCAR-5
[51] = test system: T47D
[52] = test system: UACC-62
[53] = test system: Malme-3M
[54] = test system: OVCAR-3
[55] = test system: SF-268
[56] = test system: NCI-H460
[57] = test system: CCRF-CEM
[58] = test system: HOP-92

## N#Cc1nnn(-c2ccccc2)c1O
[1]
  GI50: > 100 µM (inactive)
[2]
  GI50: > 100 µM (inactive)
[3]
  GI50: > 100 µM (inactive)
[4]
  GI50: > 100 µM (inactive)
[5]
  GI50: > 100 µM (inactive)
[6]
  GI50: > 100 µM (inactive)
[7]
  GI50: > 100 µM (inactive)
[8]
  GI50: > 100 µM (inactive)
[9]
  GI50: > 100 µM (inactive)
[10]
  GI50: > 100 µM (inactive)
[11]
  GI50: > 100 µM (inactive)
[12]
  GI50: > 100 µM (inactive)
[13]
  GI50: > 100 µM (inactive)
[14]
  GI50: > 100 µM (inactive)
[15]
  GI50: > 100 µM (inactive)
[16]
  GI50: > 100 µM (inactive)
[17]
  GI50: > 100 µM (inactive)
[18]
  GI50: > 100 µM (inactive)
[19]
  GI50: > 100 µM (inactive)
[20]
  GI50: > 100 µM (inactive)
[21]
  GI50: > 100 µM (inactive)
[22]
  GI50: > 100 µM (inactive)
[23]
  GI50: > 100 µM (inactive)
[24]
  GI50: > 100 µM (inactive)
[25]
  GI50: > 100 µM (inactive)
[26]
  GI50: > 100 µM (inactive)
[27]
  GI50: > 100 µM (inactive)
[28]
  GI50: > 100 µM
[29]
  GI50: > 100 µM (inactive)
[30]
  GI50: > 100 µM (inactive)
[31]
  GI50: > 100 µM (inactive)
[32]
  GI50: > 100 µM (inactive)
[33]
  GI50: > 100 µM (inactive)
[34]
  GI50: > 100 µM (inactive)
[35]
  GI50: > 100 µM (inactive)
[36]
  GI50: > 100 µM (inactive)
[37]
  GI50: > 100 µM (inactive)
[38]
  GI50: > 100 µM (inactive)
[39]
  GI50: > 100 µM (inactive)
[40]
  GI50: > 100 µM (inactive)
[41]
  GI50: > 100 µM (inactive)
[42]
  GI50: > 100 µM (inactive)
[43]
  GI50: > 100 µM (inactive)
[44]
  GI50: > 100 µM (inactive)
[45]
  GI50: > 100 µM (inactive)
[46]
  GI50: > 100 µM (inactive)
[47]
  GI50: > 100 µM (inactive)
[48]
  GI50: > 100 µM (inactive)
[49]
  GI50: > 100 µM (inactive)
[50]
  GI50: > 100 µM (inactive)
[51]
  GI50: > 100 µM (inactive)
[52]
  GI50: > 100 µM (inactive)
[53]
  GI50: > 100 µM (inactive)
[54]
  GI50: > 100 µM (inactive)
[55]
  GI50: > 100 µM (inactive)

## CCOP(=O)(OCC)[C@H]1OC(C)(C)O[C@@H]1CO
[1]
  GI50: > 100 µM (inactive)
[2]
  GI50: > 100 µM (inactive)
[3]
  GI50: > 100 µM (inactive)
[4]
  GI50: > 100 µM (inactive)
[5]
  GI50: > 100 µM (inactive)
[7]
  GI50: > 100 µM (inactive)
[8]
  GI50: > 100 µM (inactive)
[9]
  GI50: > 100 µM (inactive)
[10]
  GI50: > 100 µM (inactive)
[11]
  GI50: > 100 µM (inactive)
[12]
  GI50: > 100 µM (inactive)
[13]
  GI50: > 100 µM (inactive)
[14]
  GI50: > 100 µM (inactive)
[56]
  GI50: > 100 µM (inactive)
[18]
  GI50: > 100 µM (inactive)
[19]
  GI50: > 100 µM (inactive)
[20]
  GI50: > 100 µM (inactive)
[21]
  GI50: > 100 µM (inactive)
[22]
  GI50: > 100 µM (inactive)
[23]
  GI50: > 100 µM (inactive)
[24]
  GI50: > 100 µM (inactive)
[25]
  GI50: > 100 µM (inactive)
[26]
  GI50: > 100 µM (inactive)
[27]
  GI50: > 100 µM (inactive)
[28]
  GI50: > 100 µM
[29]
  GI50: > 100 µM (inactive)
[30]
  GI50: > 100 µM (inactive)
[31]
  GI50: > 100 µM (inactive)
[32]
  GI50: > 100 µM (inactive)
[33]
  GI50: > 100 µM (inactive)
[34]
  GI50: > 100 µM (inactive)
[35]
  GI50: > 100 µM (inactive)
[36]
  GI50: > 100 µM (inactive)
[57]
  GI50: > 100 µM (inactive)
[37]
  GI50: > 100 µM (inactive)
[58]
  GI50: > 100 µM (inactive)
[39]
  GI50: > 100 µM (inactive)
[40]
  GI50: > 100 µM (inactive)
[41]
  GI50: > 100 µM (inactive)
[42]
  GI50: > 100 µM (inactive)
[43]
  GI50: > 100 µM (inactive)
[44]
  GI50: > 100 µM (inactive)
[45]
  GI50: > 100 µM (inactive)
[46]
  GI50: > 100 µM (inactive)
[47]
  GI50: > 100 µM (inactive)
[48]
  GI50: > 100 µM (inactive)
[49]
  GI50: > 100 µM (inactive)
[50]
  GI50: > 100 µM (inactive)
[51]
  GI50: > 100 µM (inactive)
[52]
  GI50: > 100 µM (inactive)
[53]
  GI50: > 100 µM (inactive)
[54]
  GI50: > 100 µM (inactive)
[55]
  GI50: > 100 µM (inactive)

Reference: ChEMBL document CHEMBL1201862, “PubChem BioAssay data set” (2004)
